Broadly, the EC50 is the concentration needed to bring the measured effect to its halfway point.

What all share (format): cell-based
The subject of experiment [1] is Leishmania donovani axenic amastigote parasites. In words: Assay for Leishmania proliferation in vitro (axenic amastigotes, Cell TiterGlo). Particulars: 48 h, 2 day incubation, read-out: L. donovani amastigotes EC50. The protocol: Leishmania donovani axenic amastigote parasites are grown at 37° C., 5% CO2 in media made of RPMI 1640, 4 mM L-glutamine, 20% heat inactivated FBS, 100 units/ml of penicillin and 100 μg/ml of streptomycin, 23 μM Folic Acid, 100 μM Adenosine, 22 mM D-glucose, 25 mM MES. The pH of media is adjusted to 5.5 at 37° C. using HCl. 20 μL of media is first dispensed into 384 well plates and […] of the compounds of invention in DMSO are added to the plate wells. At the same time control compounds and DMSO are added to plates to serve as the positive and negative controls, respectively. 40 μL of parasite culture (9600 parasites) are then added to the plate wells. The plates are then placed into incubators. After 2 day incubation, 20 μL of Cell TiterGlo (Promega) is added to the plate wells. The luminescence signal of each well is measured using the Envision reader (Perkin Elmer). The percentage inhibition of 50%, EC50, is calculated for each of the compounds.
For orientation: In ATP-based viability assays light output follows the ATP content of the culture.

In experiment [2] the test system is L. donovani HU3 strain in mouse peritoneal macrophages. Put plainly: Proliferation of L. donovani in mouse peritoneal macrophages (SybrGreen, high-content imaging). Particulars: Leishmania donovani, Peritoneal macrophage, 120 h; infected mouse peritoneal macrophages, 5 days; read-out: L. donavani Macrophage EC50. The source says: The activity of a compound according to the present invention for inhibition of parasitemai can be assessed by the parasite proliferation assay. The assay measures the increase in the parasite number in the assayed plate well using a DNA intercalating dye, SYBR Green I® dye (INVITROGEN) to stain Leishmania cell nuclei. It is understood that the assays illustrate the invention without in any way limiting the scope of the invention.
L. donovani HU3 strain is propagated by infecting BALBc mice through tail vein injection with 10^7 Leishmania parasites. Infected mice are allowed to develop infection during 9-11 weeks post-infection. During this time, the parasites accumulate in the infected mouse spleens to large numbers, and the infected mice serve as the source of parasites for the in vitro measurement of compound efficacies. To assay a compound for anti-leishmanial activity, peritoneal macrophages isolated from non-infected BALBc mice are seeded into 384-well plates at density 2×10^4 macrophages per well in 25 mL of medium (RPMI1640, 10% fetal serum albumin, 10 mM HEPES, 1 mM sodium pyruvate, 1% Pen/Strep). Subsequently, the seeded plates are placed into an incubator set to maintain 37° C. temperature and atmosphere with 5% CO2. The next day, Leishmania parasites are isolated from the spleens of mice infected for 9-11 weeks and 4×10^5 isolated parasites in […] of the above media are added to each plate well. Plates are then returned into incubators and infection is allowed to proceed for 24 hours. After the infection of macrophages is completed, […] of compounds of the invention in the above medium, which also contains 5% DMSO, are added to plate wells containing infected macrophages. At the same time control compounds (miltefosine and amphotericin B) and DMSO are added to plates to serve as the positive and negative controls, respectively. After the compound addition, the plates are returned into incubator and cells infected with parasites are cultured for 5 days. At the end of cultivation, […] of 8% paraformaldehyde is added to plate wells and incubated for 15 min at room temperature. Following the incubation, the paraformaldehyde from plate wells is aspirated, and […] of PBS containing 0.2% Triton X-100 is added to wells. After 15 min incubation, the solution is aspirated from wells again, and replaced with SybrGreen Dye solution in PBS (1:125,000 dilution). Infected cells are imaged with Evotec Opera high-content microscope, and the number of parasites in well is determined by counting parasite nuclei visualized by staining with SybrGreen dye. The percentage inhibition of 50%, EC50, is calculated for each compound.
The inhibitory efficacy of the compounds of the invention against proliferation of L. donovani in mouse peritoneal macrophages is provided in Table I.

For experiment [3], the system named is Trypanosoma cruzi amastigotes cultured in 3T3 fibroblast cells. Put plainly: Assay for proliferation of kinetoplastid parasite Trypanosoma cruzi (beta-galactosidase/CPRG readout). Particulars: NIH3T3, 144 h, Tulahuen strain in 3T3 cells, 6 day incubation, read-out: T cruzi EC50. The source says: Compounds of the invention can be assayed to measure their capacity to inhibit proliferation of kinetoplastid parasite Trypanosoma cruzi. The screening procedure is for identifying compounds with inhibitor activity against Trypanosoma cruzi amastigotes cultured in 3T3 fibroblast cells. The assay is done using the mammalian stage (amastigotes) of T. cruzi that replicates in the intracellular space of host cells. The host cells are initially infected with the culture-derived trypomastigotes that rapidly invade and then divide as amastigotes. The protocol uses the Tulahuen strain of T. cruzi that has been engineered to express the E. coli beta-galactosidase gene (Lac-Z) (Antimicr. Agents Chemoth. 40:2592, 1996). This allows for a colorimetric readout by using the substrate CPRG and an absorbance plate reader.
3T3 fibroblast cells are re-suspended in RPMI-1640 medium without phenol red medium supplemented with 10% FBS (heat inactivated), 100 μg/ml penicillin, and 100 μg/ml streptomycin. Forty μL of suspension (1,000 cells) is dispensed into 384-well plates and incubated overnight at 37° C. temperature and in atmosphere containing 5% CO2. The following day, 100 nL of compounds of the invention in DMSO are added to plate wells containing 3T3 cells. At the same time control compounds (benznidazole and nifurtimox) and DMSO are added to plates to serve as the positive and negative controls, respectively. After that, 10 μL of media containing 10,000 T. cruzi trypomastigotes are added to each plate well and plates are placed back into incubators. After 6 day incubation, 10 μL of reagent solution (0.6 mM CPRG, 0.6% NP-40 in PBS) is added to plates and incubated at room temperature for 2 hours. Absorbance is then measured on SpectraMax Gemini fluorimeter to determine relative number of T. cruzi cells present in each plate well. The percentage inhibition of 50%, EC50, is calculated for each compound.

For `CC(C)(C)OC(=O)NCCOC(=O)Nc1cnc2nc(-c3cc(NC(=O)c4ccco4)ccc3Cl)[nH]c2c1` [Example 16, tert-butyl N-{2-[({2-[2-chloro-5-(furan-2-amido)phenyl]-1H-imidazo[4,5-b]pyridin-6-yl}carbamoyl)oxy]ethyl}carbamate], the figures for the EC50 in experiment [1], in experiment [2] and in experiment [3] were 5.7 µM, 10.1 µM and 4 µM, respectively.

As to `CC(C)NC(=O)Nc1cnc2nc(-c3cc(NC(=O)c4ccco4)ccc3Cl)[nH]c2c1` [Example 24, N-[4-chloro-3-(6-{[(propan-2-yl)carbamoyl]amino}-1H-imidazo[4,5-b]pyridin-2-yl)phenyl]furan-2-carboxamide], the EC50 was 23.2 µM in experiment [1], greater than 39.2 µM in experiment [2] and greater than 20 µM in experiment [3].

As to `Cc1nc(C)c(C(=O)Nc2cnc3nc(-c4cc(NC(=O)c5ccco5)ccc4Cl)[nH]c3c2)s1` [Example 5, N-{2-[2-chloro-5-(furan-2-amido)phenyl]-1H-imidazo[4,5-b]pyridin-6-yl}-2,4-dimethyl-1,3-thiazole-5-carboxamide], the EC50 in experiment [1] was 0.57 µM; in experiment [2], greater than 50 µM; in experiment [3], 1.86 µM.

`O=C(Nc1ccc(Cl)c(-c2nc3ncc([N+](=O)[O-])cc3[nH]2)c1)c1ccco1` [Example 8, N-(4-chloro-3-{6-nitro-1H-imidazo[4,5-b]pyridin-2-yl}phenyl)furan-2-carboxamide]: the EC50 in experiment [1] came out at 0.96 µM; in experiment [2], 12.4 µM; in experiment [3] it was 1.02 µM.

Regarding `CCOC(=O)Nc1cnc2nc(-c3cc(NC(=O)c4ccc(C#N)o4)ccc3Cl)[nH]c2c1` [Example 61, ethyl N-{2-[2-chloro-5-(5-cyanofuran-2-amido)phenyl]-1H-imidazo[4,5-b]pyridin-6-yl}carbamate], the figures for the EC50 in experiment [1], in experiment [2] and in experiment [3] were 2.69 µM, 3.13 µM and greater than 20 µM, respectively.

In the case of `CC(C)C(=O)Nc1cnc2nc(-c3cc(NC(=O)c4ccco4)ccc3Cl)[nH]c2c1` [Example 10, N-{4-chloro-3-[6-(2-methylpropanamido)-1H-imidazo[4,5-b]pyridin-2-yl]phenyl}furan-2-carboxamide], the EC50 in experiment [1] is 1.17 µM; in experiment [2], 2.29 µM; in experiment [3], 3.7 µM.

For the molecule `O=C(Nc1ccc(Cl)c(-c2nc3ncc(NC(=O)N4CCCC4)cc3[nH]2)c1)c1ccco1` [Example 12, N-{2-[2-chloro-5-(furan-2-amido)phenyl]-1H-imidazo[4,5-b]pyridin-6-yl}pyrrolidine-1-carboxamide], the EC50 in experiment [1] is 2.34 µM; in experiment [2], greater than 26.1 µM; in experiment [3], 11 µM.

As to `NCC(=O)Nc1cnc2nc(-c3cc(NC(=O)c4ccco4)ccc3Cl)[nH]c2c1` [Example 33, N-{3-[6-(2-aminoacetamido)-1H-imidazo[4,5-b]pyridin-2-yl]-4-chlorophenyl}furan-2-carboxamide], the EC50 in experiment [1] is greater than 25 µM; in experiment [2], greater than 50 µM; in experiment [3] it was 19.1 µM.

Consider `Nc1cnc2nc(-c3cccc(NC(=O)c4ccc(F)o4)c3)[nH]c2c1` [Example 79, N-(3-{6-amino-1H-imidazo[4,5-b]pyridin-2-yl}phenyl)-5-fluorofuran-2-carboxamide], for which the EC50 in experiment [1] is greater than 25 µM; in experiment [2], 24.5 µM; in experiment [3] it was 1.46 µM.

Turning to `CNS(=O)(=O)Nc1cnc2nc(-c3cc(NC(=O)c4ccco4)ccc3Cl)[nH]c2c1` [Example 52, N-(4-chloro-3-{6-[(methylsulfamoyl)amino]-1H-imidazo[4,5-b]pyridin-2-yl}phenyl)furan-2-carboxamide], the EC50 in experiment [1] is greater than 25 µM; in experiment [2], 28.9 µM; in experiment [3], greater than 20 µM.

Consider `O=C(Nc1ccc(Cl)c(-c2nc3ncc(NCc4cccnc4O)cc3[nH]2)c1)c1ccco1` [Example 30], for which the EC50 in experiment [1] was greater than 25 µM; in experiment [2], greater than 50 µM; in experiment [3] it was greater than 20 µM.

For the molecule `CNc1cnc2nc(-c3cc(NC(=O)c4ccco4)ccc3Cl)[nH]c2c1` [Example 11, N-{4-chloro-3-[6-(methylamino)-1H-imidazo[4,5-b]pyridin-2-yl]phenyl}furan-2-carboxamide], the values for the EC50 in experiment [1], in experiment [2] and in experiment [3] were 1.84 µM, 16.6 µM and 1.27 µM, respectively.

For the molecule `O=C(Nc1cnc2nc(-c3cc(NC(=O)c4ccco4)ccc3Cl)[nH]c2c1)OCCF` [Example 53, 2-fluoroethyl N-{2-[2-chloro-5-(furan-2-amido)phenyl]-1H-imidazo[4,5-b]pyridin-6-yl}carbamate], the EC50 in experiment [1] was 1.31 µM; in experiment [2], 1.74 µM; in experiment [3], 3.2 µM.

On to `NCCC(=O)Nc1cnc2nc(-c3cc(NC(=O)c4ccc(F)o4)ccc3Cl)[nH]c2c1` [Example 73, N-{3-[6-(3-aminopropanamido)-1H-imidazo[4,5-b]pyridin-2-yl]-4-chlorophenyl}-5-fluorofuran-2-carboxamide], for which the figures for the EC50 in experiment [1], in experiment [2] and in experiment [3] were greater than 25 µM, greater than 50 µM and greater than 20 µM, respectively.

With `CS(=O)(=O)Nc1ccc(Cl)c(-c2nc3ncc(NS(C)(=O)=O)cc3[nH]2)c1` [Example 58, N-[2-(2-chloro-5-methanesulfonamidophenyl)-1H-imidazo[4,5-b]pyridin-6-yl]methanesulfonamide], the EC50 is greater than 25 µM in experiment [1], greater than 50 µM in experiment [2] and greater than 20 µM in experiment [3].

Turning to `CC(C)S(=O)(=O)Nc1ccc(Cl)c(-c2nc3ncc(NS(=O)(=O)C(C)C)cc3[nH]2)c1` [Example 59, N-{2-[2-chloro-5-(propane-2-sulfonamido)phenyl]-1H-imidazo[4,5-b]pyridin-6-yl}propane-2-sulfonamide], the EC50 in experiment [1] is greater than 25 µM; in experiment [2], greater than 22.8 µM; in experiment [3] it was greater than 20 µM.

For `O=C(Nc1ccc(Cl)c(-c2nc3ncc(NC(=O)C4CNC4)cc3[nH]2)c1)c1ccco1` [Example 62, N-{2-[2-chloro-5-(furan-2-amido)phenyl]-1H-imidazo[4,5-b]pyridin-6-yl}azetidine-3-carboxamide], the EC50 in experiment [1] was greater than 25 µM; in experiment [2], greater than 28.8 µM; in experiment [3], greater than 20 µM.

As to `COCCC(=O)Nc1cnc2nc(-c3cc(NC(=O)c4ccco4)ccc3Cl)[nH]c2c1` [Example 19, N-{4-chloro-3-[6-(3-methoxypropanamido)-1H-imidazo[4,5-b]pyridin-2-yl]phenyl}furan-2-carboxamide], the figures for the EC50 in experiment [1], in experiment [2] and in experiment [3] were 13.3 µM, 25.5 µM and greater than 20 µM, respectively.

Values taken from patent publication US9186361B2, “Compounds and compositions for the treatment of parasitic diseases” (Novartis AG, priority 2013, dated 2015).
